Experimental data: patent publication US7655225B2, “Methods of expanding stem and progenitor cells and expanded cell populations obtained thereby” (Gamida Cell, Ltd., priority 2002, dated 2010)

How the values were obtained:
CD34+ cells [1] = assay: Cellular copper content by atomic absorption; assay type: cell-based, human; conditions: 2 days incubation, relative to untreated control
Protocol: Cell cultures: Cultures of enriched CD34^+ cell fraction were generated, maintained and analyzed as described in Example 1 above.
Copper Determination: Cells were harvested by centrifugation at 1000 g for 5 minutes. The cell pellet was washed three times in PBS. Aliquots containing 2×10^6 cells were then transferred into a metal-free Eppendorf tube and pelleted by centrifugation at 1000 g. The cell pellet was re-suspended in 0.03 M ultra-pure nitric acid to give a concentration of 1×10^7 cells/ml. The cells were sonicated and then analyzed in duplicate by a Perkin Elmer graphite furnace atomic absorption spectrophotometer at a wavelength of 324.7 nm and a 0.7 slit width. The following times and temperatures were used: drying at 95° C. for 45 seconds with a 15-s ramp; charring at […] for 30 seconds with a 10-s ramp, and atomization at […] for 10 seconds. The peak area was integrated for 10 seconds. The samples were analyzed against copper standard solution prepared from a commercial stock solution that was diluted with 0.03 M ultra pure nitric acid.
Effect of TEPA-Cu chelate and TEPA chelator on the cellular copper content: Purified CD34^+ cell were seeded in liquid culture in the presence of early cytokines and treated either with TEPA-Cu chelate or with TEPA chelator. After 2 days incubation, cells were separated from culture media and analyzed for cellular copper content. The results are presented in Table 1 below and indicate that cultured cells treated with TEPA-Cu chelate, at different concentrations, developed progressively higher cellular copper content. In contrast, cultured cells treated with TEPA chelator, at different concentrations, developed progressively lower cellular copper contents.

platelets = assay: In vivo recovery of platelets after gamma-irradiation; parameters: species or system mice (BALB/C X C57B1/6/F1); conditions: single treatment, 30 μM; irradiated mice
Protocol: In this experiment, ten mice (BALB/C X C57B1/6/F1) were gamma-irradiated (700 cGy) so as to mimic an irradiation therapy situation that destroys platelets. One day after irradiation five (out of ten) mice were administered with 30 μM of Cu-TEPA, while the other five mice were non-treated. The platelet levels in all mice were enumerated one week after irradiation. […] The results of this experiment illustrate that a copper chelate can effectively enhance the recovery of hematopoietic cells in subjects exposed to irradiation treatment.

CD34+ cells [2] = assay: Ex vivo expansion of purified CD34+ cells in liquid culture: cell enumeration and FACS of subsets; assay type: cell-based, human; conditions: for density of CD34+CD38− cells, fold higher than untreated control / density of CD34+ Lin− progenitor cells, fold higher than untreated control: with IL-3; for density of CD34+CD38− cells, fold higher than untreated control: FIG. 6b; for density of CD34+ Lin− progenitor cells, fold higher than untreated control: FIG. 6c
Protocol: Sample collection and processing: Samples were obtained from umbilical human cord blood and processed within 12 hours. The blood cells were mixed with 3% Gelatin (Gigma, St. Louis, Mo.) and allowed to sediment for 30 minutes to remove most red blood cells. The leukocyte-rich fraction was harvested, layered on Ficoll-Hypaque (density 1.077 gram/ml; Sigma) and centrifuged at 400 g for 30 minutes at room temperature. The mononuclear cells in the interface layer were then collected, washed three times in phosphate-buffered saline (PBS; Biological Industries), and re-suspended in PBS solution which contains 1% bovine serum albumin (BSA; Sigma). The cells were then incubated at 4° C. for 30 minutes with murine monoclonal anti CD34^+ antibody (0.5 μg/10^6 mononuclear cells) and were thereafter isolated using two cycles of immuno-magnetic separation using the miniMACS CD34^+ Progenitor Cell Isolation Kit (Miltenyi-Biotec, Auburn, Calif.) according to the manufacturer's recommendations. The purity of the CD34^+ cells obtained ranged between 95% and 98%, based on Flow Cytometry evaluation (see below). Ex vivo expansion of progenitor cells: Enriched CD34^+ cell fractions were cultures in 24-well Costar Cell Culture Clusters (Corning Inc., Corning, N.Y.) or in Culture Bags (American Fluoroseal Corp.) with alpha minimal essential medium supplemented with 10% fetal bovine serum (FBS, Biological Industries), at about 1-3×10^4 cells/ml medium. The media were further supplemented with the following human recombinant cytokines (all obtained from Perpo Tech, Inc., Rocky Hill, N.J.): Thrombopoietin (TPO), 50 ng/ml; interleukin 6 (IL-6), 50 ng/ml; FLT-3 ligand, 50 ng/ml; and IL-3, 20 ng/ml. The cultures were incubated at 37° C. in an atmosphere of 5% CO2 in air with extra humidity. At weekly intervals cell cultures were semi-depopulated and supplemented with fresh medium containing the cytokines. Following different incubation periods, the cells were harvested, stained with trypan blue and enumerated. The total cell counts, numbers of CD34^+ cells and subsets thereof, and the number of colony-forming cells (CFU) are presented herein as cumulative numbers, with the assumption that the cultures had not been passaged, namely, the numbers of cells per ml were multiplied by the number of passages performed. Surface antigen analysis: At different time intervals, the cultured cells were harvested, washed with a PBS solution containing 1% BSA and 0.1% sodium azide (Sigma), and stained, at 4° C. for 60 minutes, with FITC-labeled anti CD45 monoclonal antibody and either PE-labeled anti CD34 (HPCA-2) monoclonal or PE-labeled control mouse Ig (all from Immunoquality Products, the Netherlands). The cells were then washed with the same PBS solution and were analyzed by a flow cytometer, as described hereinafter. Flow cytometry analysis: Cells were analyzed and sorted using FACS caliber flow cytometer (Becton-Dickinson, Immunofluorometry systems, Mountain View, Calif.). Cells were passed at a rate of 1,000 cells/second through a 70 μm nozzle, using a saline sheath fluid. A 488 nm argon laser beam at 250 mW served as the light source for excitation. Fluorescence emission of ten thousand cells was measured using a logarithmic amplification and analyzed using CellQuest software. Determination of the density of stem and progenitor subset populations following expansion: Following an incubation period, the CD34^+ cells were re-selected using miniMACS Miltenyi kit. The purity of the positive fraction of selected CD34^+ cells was confirmed by FACS analysis as well as by cell morphology analysis. The density of CD34^+ cells, in proportion (percentage) to total cells, was determined directly via FACS analysis. The densities of CD34^+ subset populations were determined from the purified CD34^+ fraction. Re-selected CD34^+ cells were stained with lineage specific antigens followed by FACS analysis to determine the percentage of the subset populations within the total number of CD34^+ cells. […]

NCCNCCNCCNCCN.[Cl-].[Cl-].[Cu+2] [TEPA-Cu chelate, tetraethylenepentamine-copper chelate]
Relative cellular-copper content (%) (CD34+ cells [1]; 10 μM): 178% | Relative cellular-copper content (%) (CD34+ cells [1]; 30 μM): 235% | Relative cellular-copper content (%) (CD34+ cells [1]; 60 μM): 290% | recovery of platelets vs non-treated control (platelets): significantly accelerated | density of CD34+CD38− cells, fold higher than untreated control (CD34+ cells [2]; 20 μM, two weeks): 5 fold | density of CD34+ Lin− progenitor cells, fold higher than untreated control (CD34+ cells [2]; 20 μM, two weeks): 3 fold | density of CD34+CD38− cells, fold higher than untreated control (CD34+ cells [2]; 40 μM, two weeks): 15 fold | density of CD34+ Lin− progenitor cells, fold higher than untreated control (CD34+ cells [2]; 40 μM, two weeks): 5 fold | density of CD34+CD38− cells, fold higher than untreated control (CD34+ cells [2]; 50 μM, two weeks): 15 fold | density of CD34+ Lin− progenitor cells, fold higher than untreated control (CD34+ cells [2]; 50 μM, two weeks): 4 fold | number of CD34+ cells vs untreated (cytokines only) culture (CD34+ cells [2]; 2 and 3 weeks, 30 μM or 40 μM, FIG. 5a): remained almost unchanged | number of CD34+CD38− cells, fold higher than untreated control (CD34+ cells [2]; 3 weeks, 30 μM or 40 μM, FIG. 5b): 6-7 fold | number of CD34+ Lin− cells, fold higher than untreated control (CD34+ cells [2]; 3 weeks, 30 μM or 40 μM, FIG. 5c): 4-6.5 fold | density of CD34+ stem cells, expansion (CD34+ cells [2]; three weeks, 40 μM, TPO, FLT-3, IL-6, SCF, untreated 40 fold, FIG. 4a): 50 fold | density of CD34+CD38− progenitor cells, expansion (CD34+ cells [2]; three weeks, 40 μM, untreated 5 fold, FIG. 4b): 250 fold | density of CD34+ Lin− progenitor cells, expansion (CD34+ cells [2]; three weeks, 40 μM, untreated 10 fold, FIG. 4c): 110 fold | more total cells as compared with the untreated control (CD34+ cells [2]; three weeks, 50 μM, FIG. 8a): ca. 25% | density of CD34+ CD38− subset cells vs untreated control (CD34+ cells [2]; three weeks, 50 μM, FIG. 8c): substantially higher | density of CD34+ Lin− subset cells vs untreated control (CD34+ cells [2]; three weeks, 50 μM, FIG. 8d): substantially higher | CD34+ cell expansion vs untreated control (CD34+ cells [2]; two weeks culture, 40 μM, FIGS. 11a-b): did not significantly affect | density of CD34+CD61+ progenitor cells, fold vs untreated control (CD34+ cells [2]; two weeks, 40 μM, FIG. 7a): ca. 2 fold | density of CD34+CD41+ progenitor cells, fold vs untreated control (CD34+ cells [2]; two weeks, 40 μM, FIG. 7b): ~3 fold | density of CD34+ stem cells, fold higher than untreated control (CD34+ cells [2]; two weeks, 20, 40 and 50 μM, TPO, FLT-3, IL-6, IL-3, FIG. 6a): ca. 1.5 fold

NCCNCCNCCNCCN [TEPA chelator, tetraethylenepentamine]
Relative cellular-copper content (%) (CD34+ cells [1]; 5 μM): 80% | Relative cellular-copper content (%) (CD34+ cells [1]; 10 μM): 55% | Relative cellular-copper content (%) (CD34+ cells [1]; 20 μM): 42% | density of CD34+ CD38− subset cells vs untreated or TEPA-Cu treatment (CD34+ cells [2]; three weeks, 5 μM, FIG. 12b): substantially increased | density of CD34+ Lin− subset cells vs untreated or TEPA-Cu treatment (CD34+ cells [2]; three weeks, 5 μM, FIG. 12c): substantially increased | density of CD34+CD38− cells vs untreated or TEPA-Cu treatment (CD34+ cells [2]; two and three weeks, 5 μM, FIG. 13b): substantially higher | density of CD34+ Lin− cells vs untreated or TEPA-Cu treatment (CD34+ cells [2]; two and three weeks, 5 μM, FIG. 13c): substantially higher | density of CD34+ cells vs untreated control (CD34+ cells [2]; two weeks culture, 5 μM, FIGS. 11a-b): slightly decreased
